Experimental data reported in PubChem BioAssay AID248 (DTP/NCI, 2004).
Inconclusive results and toxic doses are left out. Rule as the data show it: active = T/C of 150% or more; inactive = T/C below 125%.

System: L1210 leukemia ip in BDF1 mice, survival T/C
Assay: NCI In Vivo Anticancer Drug Screen. Data for tumor model L1210 Leukemia (intraperitoneal) in B6D2F1 (BDF1) mice
Details: endpoint: mean survival time, higher = longer survival
Method in brief: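 Tumor cells were implanted, animals were treated, and survival was followed. The result divides the treated measurement by the vehicle-control measurement.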

[1] = dose: 100.0 mg/kg/injection, schedule: Q01DX001 (ip), vehicle: Klucel (hydroxypropylcellulose) (HPC)
[2] = dose: 100.0 mg/kg/injection, schedule: Q04DX003 (ip), vehicle: Klucel (hydroxypropylcellulose) (HPC)
[3] = dose: 200.0 mg/kg/injection, schedule: Q01DX001 (ip), vehicle: Klucel (hydroxypropylcellulose) (HPC)
[4] = dose: 200.0 mg/kg/injection, schedule: Q04DX003 (ip), vehicle: Klucel (hydroxypropylcellulose) (HPC)
[5] = dose: 400.0 mg/kg/injection, schedule: Q01DX001 (ip), vehicle: Klucel (hydroxypropylcellulose) (HPC)
[6] = dose: 400.0 mg/kg/injection, schedule: Q04DX003 (ip), vehicle: Klucel (hydroxypropylcellulose) (HPC)
[7] = dose: 100.0 mg/kg/injection, schedule: Q04DX002 (ip), vehicle: Klucel (hydroxypropylcellulose) (HPC)
[8] = dose: 200.0 mg/kg/injection, schedule: Q04DX002 (ip), vehicle: Klucel (hydroxypropylcellulose) (HPC)
[9] = dose: 400.0 mg/kg/injection, schedule: Q04DX002 (ip), vehicle: Klucel (hydroxypropylcellulose) (HPC)
[10] = dose: 100.0 mg/kg/injection, schedule: Q01DX009 (ip), vehicle: Klucel (hydroxypropylcellulose) (HPC)
[11] = dose: 200.0 mg/kg/injection, schedule: Q01DX009 (ip), vehicle: Klucel (hydroxypropylcellulose) (HPC)
[12] = dose: 100.0 mg/kg/injection, schedule: Q04DX003 (ip), vehicle: saline with Tween-80
[13] = dose: 200.0 mg/kg/injection, schedule: Q04DX003 (ip), vehicle: saline with Tween-80
[14] = dose: 400.0 mg/kg/injection, schedule: Q01DX009 (ip), vehicle: Klucel (hydroxypropylcellulose) (HPC)
[15] = dose: 400.0 mg/kg/injection, schedule: Q04DX003 (ip), vehicle: saline with Tween-80
[16] = dose: 100.0 mg/kg/injection, schedule: Q04DX002 (ip), vehicle: saline with Tween-80
[17] = dose: 200.0 mg/kg/injection, schedule: Q04DX002 (ip), vehicle: saline with Tween-80

Measured: T/C

Cc1cc(C)c(S(=O)(=O)C(=O)C(=O)NN)c(C)c1
inactive: [1] 104 % of control | [2] 115 % of control | [3] 106 % of control | [4] 109 % of control | [5] 106 % of control | [6] 104 % of control

CCCCOc1ccc(NC(N)=Nc2ccc(Cl)cc2)cc1
inactive: dose: 2.5 mg/kg/injection, schedule: Q01DX009 (ip), vehicle: saline with Tween-80 102 % of control | dose: 5.0 mg/kg/injection, schedule: Q01DX009 (ip), vehicle: saline with Tween-80 94 % of control | dose: 10.0 mg/kg/injection, schedule: Q01DX009 (ip), vehicle: saline with Tween-80 96 % of control | dose: 10.0 mg/kg/injection, schedule: Q04DX003 (ip), vehicle: saline with Tween-80 101 % of control | dose: 12.5 mg/kg/injection, schedule: Q01DX001 (ip), vehicle: carboxymethylcellulose (CMC) 109 % of control | dose: 20.0 mg/kg/injection, schedule: Q01DX009 (ip), vehicle: saline with Tween-80 103 % of control | dose: 20.0 mg/kg/injection, schedule: Q04DX003 (ip), vehicle: saline with Tween-80 92 % of control | dose: 25.0 mg/kg/injection, schedule: Q01DX001 (ip), vehicle: carboxymethylcellulose (CMC) 100 % of control | dose: 40.0 mg/kg/injection, schedule: Q04DX003 (ip), vehicle: saline with Tween-80 97 % of control | dose: 50.0 mg/kg/injection, schedule: Q01DX001 (ip), vehicle: carboxymethylcellulose (CMC) 100 % of control | dose: 80.0 mg/kg/injection, schedule: Q04DX003 (ip), vehicle: saline with Tween-80 98 % of control

COc1cc(CC2c3ccccc3CC[N+]2(C)C)c(Oc2cc(CC3c4ccccc4CC[N+]3(C)C)ccc2OC)cc1OC (centres undefined)
inactive: dose: 0.78 mg/kg/injection, schedule: Q01DX009 (ip), vehicle: Klucel (hydroxypropylcellulose) (HPC) 103 % of control | dose: 1.56 mg/kg/injection, schedule: Q01DX009 (ip), vehicle: Klucel (hydroxypropylcellulose) (HPC) 97 % of control | dose: 3.13 mg/kg/injection, schedule: Q01DX009 (ip), vehicle: Klucel (hydroxypropylcellulose) (HPC) 100 % of control

COC(=O)c1ccc(C(F)(F)F)cc1O
inactive: [2] 97 % of control | [4] 100 % of control | [6] 108 % of control

CC1C(=O)C(C)C(C(=O)O)C1C (centres undefined)
inactive: [7] 100 % of control | [8] 107 % of control | [9] 93 % of control

O=C(Nc1ccc2c(c1)C(Br)c1ccccc1-2)C(F)(F)F (centres undefined)
inactive: [10] 98 % of control | [2] 97 % of control | [11] 93 % of control | [4] 97 % of control | [6] 97 % of control

Cc1ccc(S(=O)(=O)OCC2C3C=CC(C4C=CC43)C2COS(=O)(=O)c2ccc(C)cc2)cc1 (centres undefined)
inactive: [7] 94 % of control | [8] 98 % of control | [9] 98 % of control

O=c1c2ccccc2[nH]c(=S)n1-c1ccc(Cl)cc1
inactive: [10] 100 % of control | [12] 100 % of control | [11] 111 % of control | [13] 100 % of control | [14] 97 % of control | [15] 97 % of control

CC1=NN(c2ccccc2)C(=O)C1N=Nc1ccc(S(=O)(=O)Nc2occ(C)c2C)cc1 (centres undefined)
inactive: dose: 100.0 mg/kg/injection, schedule: Q01DX001 (ip), vehicle: carboxymethylcellulose (CMC) 90 % of control | dose: 200.0 mg/kg/injection, schedule: Q01DX001 (ip), vehicle: carboxymethylcellulose (CMC) 90 % of control | dose: 400.0 mg/kg/injection, schedule: Q01DX001 (ip), vehicle: carboxymethylcellulose (CMC) 93 % of control

c1ccc(-c2nnc(-c3ccccn3)nc2-c2ccccc2)cc1
inactive: [12] 95 % of control | [13] 104 % of control | [15] 112 % of control

O=C(Nc1ccc(Cl)c(Cl)c1)Oc1ccc(C2CCCCC2)cc1
inactive: [10] 95 % of control | [2] 111 % of control | [11] 95 % of control | [4] 109 % of control | [14] 97 % of control | [6] 101 % of control

SC1(SC2(S)CCCCC2)CCCCC1
inactive: [12] 97 % of control | [13] 101 % of control | [15] 113 % of control

O=C1C(=C(C(F)(F)F)C(F)(F)F)C2CCC1C2 (centres undefined)
inactive: dose: 6.25 mg/kg/injection, schedule: Q01DX009 (ip), vehicle: saline with Tween-80 93 % of control | dose: 6.25 mg/kg/injection, schedule: Q04DX003 (ip), vehicle: saline with Tween-80 114 % of control | dose: 12.5 mg/kg/injection, schedule: Q01DX009 (ip), vehicle: saline with Tween-80 93 % of control | dose: 12.5 mg/kg/injection, schedule: Q04DX003 (ip), vehicle: saline with Tween-80 92 % of control | dose: 25.0 mg/kg/injection, schedule: Q04DX003 (ip), vehicle: saline with Tween-80 96 % of control

O=c1cc(CCCCCc2ccccc2)[nH]c(=O)[nH]1
inactive: [1] 97 % of control | [3] 97 % of control | [5] 101 % of control

CN(C)C(=O)Nc1cccc2nsnc12
inactive: [10] 106 % of control | [11] 104 % of control | [14] 102 % of control

COc1ccccc1C(=O)Nc1ccccc1SC
inactive: [7] 93 % of control | [8] 93 % of control | [9] 93 % of control

Cc1cccc(NC(=O)c2cccc([N+](=O)[O-])c2C(=O)O)c1C
inactive: [7] 103 % of control | [8] 103 % of control | [9] 103 % of control

CC1OC(C2COC(C)(C)O2)C2OCOC12 (centres undefined)
inactive: [16] 100 % of control | [17] 100 % of control | dose: 400.0 mg/kg/injection, schedule: Q04DX002 (ip), vehicle: saline with Tween-80 100 % of control

Cc1cc(Cl)ccc1OC(=O)COc1cc(Cl)c(Cl)cc1Cl
inactive: dose: 1.56 mg/kg/injection, schedule: Q04DX002 (ip), vehicle: Klucel (hydroxypropylcellulose) (HPC) 108 % of control | dose: 3.13 mg/kg/injection, schedule: Q04DX002 (ip), vehicle: Klucel (hydroxypropylcellulose) (HPC) 108 % of control | dose: 6.25 mg/kg/injection, schedule: Q04DX002 (ip), vehicle: Klucel (hydroxypropylcellulose) (HPC) 105 % of control | dose: 12.5 mg/kg/injection, schedule: Q04DX002 (ip), vehicle: Klucel (hydroxypropylcellulose) (HPC) 95 % of control | dose: 25.0 mg/kg/injection, schedule: Q04DX002 (ip), vehicle: Klucel (hydroxypropylcellulose) (HPC) 100 % of control | dose: 50.0 mg/kg/injection, schedule: Q04DX002 (ip), vehicle: Klucel (hydroxypropylcellulose) (HPC) 100 % of control

CCCCNC(C)(C)C(SS)c1ccco1 (centres undefined)
inactive: dose: 12.5 mg/kg/injection, schedule: Q04DX003 (ip), vehicle: alcohol 104 % of control | dose: 25.0 mg/kg/injection, schedule: Q01DX009 (ip), vehicle: saline 97 % of control | dose: 25.0 mg/kg/injection, schedule: Q04DX003 (ip), vehicle: alcohol 101 % of control | dose: 50.0 mg/kg/injection, schedule: Q01DX009 (ip), vehicle: saline 92 % of control | dose: 50.0 mg/kg/injection, schedule: Q04DX003 (ip), vehicle: alcohol 96 % of control | dose: 100.0 mg/kg/injection, schedule: Q01DX009 (ip), vehicle: saline 98 % of control | dose: 100.0 mg/kg/injection, schedule: Q04DX003 (ip), vehicle: alcohol 101 % of control | dose: 150.0 mg/kg/injection, schedule: Q01DX009 (ip), vehicle: saline with Tween-80 92 % of control | dose: 200.0 mg/kg/injection, schedule: Q04DX003 (ip), vehicle: alcohol 104 % of control

Fc1c(F)c(-c2c(F)c(F)c(S)c(F)c2F)c(F)c(F)c1S
inactive: [16] 88 % of control | [17] 98 % of control

C/C(=C/c1c(C)cc(C)c(NC(=O)c2ccc([N+](=O)[O-])cc2)c1C)CBr
inactive: [1] 93 % of control | [2] 97 % of control | [3] 102 % of control | [4] 92 % of control | [5] 96 % of control | [6] 92 % of control

O=C(O)c1ccccc1C(=O)NC(Cc1cnc[nH]1)C(=O)O (centres undefined)
inactive: dose: 100.0 mg/kg/injection, schedule: Q01DX009 (ip), vehicle: saline with Tween-80 96 % of control | [12] 102 % of control | dose: 200.0 mg/kg/injection, schedule: Q01DX009 (ip), vehicle: saline with Tween-80 100 % of control | [13] 102 % of control | dose: 400.0 mg/kg/injection, schedule: Q01DX009 (ip), vehicle: saline with Tween-80 94 % of control | [15] 91 % of control
